Results: patent US20240208961A1, “EIF4E INHIBITORS AND USES THEREOF” (PIC Therapeutics, Inc., priority 2022, published 2024)

Tests used:
[1] = system: NCIH510A; experiment: Cell viability assay, suspension cell line, 5 day Alamar Blue (Example 8): NCIH510A; format: cell-based; conditions: Homo sapiens, NCI-H510A, 120 h, Small Cell Lung Cancer Cell Line
Procedure: (§1) Cell viability assays were performed on certain compounds of the disclosure, according to the following procedure.
(§2) Cell line specific media conditions used:
(§3) The procedure for suspension cell line compound screening was as follows:
(§4) Day 1: Cell Seeding and Compound Dosing
(§5) • Cells were seeded 2×10^5 in 96-well cell culture treated tissue culture plates: 87.5 μL/well; MM.1 S, MM,1R, NCIH510A. • 5-fold serial dilution (8 point) of each compound in DMSO 0-25 mM in compound storage plates was prepared (stored at −80° C. if not to be used immediately). • Cells were rinsed with 1% FBS Media (appropriate to cell line as described above) and replaced with 87.5 μL media prior to dosing. • DMSO compound dilution series was diluted in 1% FBS media (appropriate to cell line as described above)—2 μL in 248 μL to give an 8× final concentration. • Cells were dosed 12.5 μL/well in triplicate to give final dose curved on cells 0-25 μM. • Media blank 100 μL/well×8 was set up. • All plates were incubated at 37° C.
(§6) Day 6: 5 Day Viability Assay
(§7) • Alamar Blue viability reagent was added (10 μL per well) and incubated for 3 hours at 37° C. prior to fluorescence detection (Ex560 nm/Em590 nm) on a Varioskan Lux multimode plate reader.
(§8) Results from cell viability assays are summarized in Table 23, wherein A represents IC50≤1 μM; B represents 1 μM<IC50≤8 μM; and C represents IC50>8 μM. Blank cells indicate that the compound was not tested in a particular assay.

[2] = system: T47D; experiment: Cell viability assay, adherent cell line, 5 day Alamar Blue (Example 8): T47D; format: cell-based; conditions: Homo sapiens, 120 h, Breast Cancer Cell Viability
Procedure: as §1, §2
(§9) The procedure for adherent cell line compound screening was as follows:
(§10) • Cells were seeded in 96-well cell culture treated tissue culture plates: ZR-75-1, NIHOVCAR3, T47D, and LOVO cells 4000 cells/well; and HPAFII 3000 cell/well
(§11) Day 3: Compound Dilution and Dosing
as §5, with “•” for “• Cells were seeded 2×10^5 in 96-well cell culture treated tissue culture plates: 87.5 μL/well; MM.1 S, MM,1R, NCIH510A. •”, “dosing. HPAFII was screened in normal 10% FBS Media.” for “dosing.”
(§12) Day 8: 5 Day Viability Assay
as §7, §8

[3] = system: ZR-75-1; experiment: Cell viability assay, adherent cell line, 5 day Alamar Blue (Example 8): ZR-75-1; format: cell-based; conditions: Homo sapiens, 120 h, ZR-75-1, Breast Cancer Cell Viability
Procedure: as §1, §2, §9, §10, §11
as §5, with “•” for “• Cells were seeded 2×10^5 in 96-well cell culture treated tissue culture plates: 87.5 μL/well; MM.1 S, MM,1R, NCIH510A. •”, “dosing. HPAFII was screened in normal 10% FBS Media.” for “dosing.”
as §12, §7, §8

[4] = target: T1, Human eIF4E (aa 28-217) (Homo sapiens, UniProt P06730); experiment: 4G-eIF4E protein-based assay (TR-FRET, biotin labeled 4G2 peptide); format: binding
T1 construct: Human eIF4E (aa 28-217) with a C-terminal His-tag; made in house
Procedure: Human eIF4E ([…]) with a C-terminal His-tag was expressed in E. coli in inclusion bodies. The protein was solubilized with 8 M urea and purified under denaturing conditions using nickel-charged HisTrap HP columns (GE Healthcare). The purified protein was then refolded by diluting in 20 mM Hepes pH 7.0, 0.5 M NaCl, 1 mM DTT, […], 0.5 M arginine plus 6 M urea, and then dialyzing overnight into the same buffer without the urea. The protein was further dialyzed into 20 mM Hepes, pH 6.5, 50 mM NaCl, 1 mM EDTA, 1 mM DTT, and concentrated using Hitrap SP sepharose FF columns (GE Healthcare). The concentrated protein was dialyzed into 20 mM Hepes, pH 7.0, 0.5M NaCl, 5 mM DTT and […], and stored at -80° C. until use. Test compounds (3.43 mM stock in DMSO) were diluted 2-fold in series in DMSO (10 concentration points). Compound solutions (1.2 μL/well) were added into black 384-well polypropylene microplates (Matrix, Thermal Scientific). […] The samples were incubated at room temperature (20-23° C.) for 4 hours. Biotin labeled 4G2 peptide ([…])-NH2, 1.75 μM stock in DMSO) was diluted to 0.13 μM in Assay Buffer (without DTT) and 5 μL/well was added. The samples were incubated at room temperature for 20 min. Five microliters per well of 15 nM Eu-streptavidin (Eu-SA, Perkin Elmer) and 96 nM Allophycocyanin (APC)-anti His antibody (Columbia Biosciences) in Assay Buffer (without DTT) were then added and the samples were incubated at room temperature for 20 min. Assay signals were monitored by reading excitation at 340 nm and emission fluorescence at 615 nm and 665 nm on an Envision reader (Perkin Elmer). Normalized TR-FRET (time-resolved fluorescence resonance energy transfer) assay signal (Rn) was calculated by the formula: […] C=(Ac-Ba)/(Dc-Bd) • Where Ac is the fluorescence intensity of 1.5 nM Eu-SA in the assay buffer at 665 nm. IC50 values were calculated using xLFit program (IDBS).

[5] = system: MM.1R; experiment: Cell viability assay, suspension cell line, 5 day Alamar Blue (Example 8): MM.1R; format: cell-based; conditions: 120 h, Multiple Myeloma (Steroid Resistant) Cancer Cell
Procedure: as §1, §2, §3, §4, §5, §6, §7, §8

[6] = system: LoVo; experiment: Cell viability assay, adherent cell line, 5 day Alamar Blue (Example 8): LoVo; format: cell-based; conditions: Homo sapiens, 120 h, Colorectal Cancer Cell Viability
Procedure: as §1, §2, §9, §10, §11
as §5, with “•” for “• Cells were seeded 2×10^5 in 96-well cell culture treated tissue culture plates: 87.5 μL/well; MM.1 S, MM,1R, NCIH510A. •”, “dosing. HPAFII was screened in normal 10% FBS Media.” for “dosing.”
as §12, §7, §8

[7] = system: ZR-75-1; experiment: ZR-75-1 compound screening cell viability, Alamar Blue (Example 6); format: cell-based; conditions: Homo sapiens, 96 h, ZR-75-1 cells, Media 1% FBS, read-out: ZR-75-1 Cell Viability, 4 Days: IC50
[8] = system: NIHOVCAR3; experiment: Cell viability assay, adherent cell line, 5 day Alamar Blue (Example 8): NIHOVCAR3; format: cell-based; conditions: Homo sapiens, OVCAR-3, 120 h, OVCAR3, Ovarian Cancer Cell
Procedure: as §1, §2, §9, §10, §11
as §5, with “•” for “• Cells were seeded 2×10^5 in 96-well cell culture treated tissue culture plates: 87.5 μL/well; MM.1 S, MM,1R, NCIH510A. •”, “dosing. HPAFII was screened in normal 10% FBS Media.” for “dosing.”
as §12, §7, §8

[9] = system: MM.1S; experiment: Cell viability assay, suspension cell line, 5 day Alamar Blue (Example 8): MM.1S; format: cell-based; conditions: Homo sapiens, MM1.S, 120 h, Multiple Myeloma (Steroid Sensitive) Cancer Cell
Procedure: as §1, §2, §3, §4, §5, §6, §7, §8

[10] = system: HPAFII; experiment: Cell viability assay, adherent cell line, 5 day Alamar Blue (Example 8): HPAFII; format: cell-based; conditions: Homo sapiens, HPAF-II, 120 h, Pancreatic Cancer Cell
Procedure: as §1, §2, §9, §10, §11
as §5, with “•” for “• Cells were seeded 2×10^5 in 96-well cell culture treated tissue culture plates: 87.5 μL/well; MM.1 S, MM,1R, NCIH510A. •”, “dosing. HPAFII was screened in normal 10% FBS Media.” for “dosing.”
as §12, §7, §8

[11] = system: ZR-75-1 tumor; experiment: ZR-75-1 subQ CDX model; format: in vivo; conditions: female BALB/c nude mice, 10 mg/kg, PO, QD, FIG. 14
Procedure: Female BALB/c nude mice were inoculated with estrogen tablets (0.36 mg/pellet, 60 days to release) 48 hours before cell inoculation. The xenograft model was established by implantation of […] of ZR-75-1 tumor cell suspension (5×10^6 cells/mouse, with 50% Matrigel) subcutaneously into the right subaxillary of female BALB/c nude mice aged 6-8 weeks. When the average tumor volume reached 153.10 mm^3, the tumor-bearing mice were randomized into treatment groups. The groups were treated as follows: Group 1: vehicle, PO, QW; Group 2: Tamoxifen 10 mg/kg, PO, QD; Group 3: Compound I-11 50 mg/kg, PO, QW.
Cell culture: The ZR-75-1 (breast, ductal carcinoma) cell was purchased from (ATCC® CRL-1500™). The base medium for this cell line ATCC-formulated RPMI-1640 Medium. To make the complete growth medium, the base medium was supplemented with 10% heat inactivated FBS and 1% PS, maintained at 37° C. in an atmosphere containing 5% CO2 in air. The tumor cells were routinely subcultured at a ratio of 1:1.5 to 1:3 every 3-6 days. Cell concentration at harvest time was 5.39×10^7 cells/mL and cell viability was 94.3% before inoculation.
Tumor inoculation: BALB/c nude mice were used in this study. Each mouse was inoculated with estrogen tablets 48 hours before cell inoculation (0.3 mg/pellet, 60 days to release). […]

[12] = system: MM.1R cells; experiment: 5 day viability assay in MM.1R cells, I-11 and dexamethasone (Example 7); format: cell-based; conditions: 120 h; MM.1R cells (steroid resistant), 5 days, Alamar Blue; read-out: IC50 (μM), Viability Assessment (5 Days) in MM.1R Cells
Procedure: (§13) Compound I-11 was studied in the context of dexamethasone combinations, which is used clinically in early Multiple Myeloma prior to the emergence of steroid resistance and is a common backbone therapy. The MM.1S cell line is a steroid sensitive line, and the MM.1R line is the corresponding cell line which has been driven to steroid resistance. The procedure for these studies was as follows:
as §4
(§14) • Cells were seeded 2×10^5 in 96-well cell culture treated tissue culture plates: 87.5 μL/well; MM.1 S and MM.1R • A 5-fold serial dilution of each compound in DMSO (0-25 mM) was prepared in compound storage plates (stored at −80° C. if not to be used immediately). An 8-point curve was used for compound I-11, and a 6-point curve was used for dexamethasone (0-25 mM). • Cells were rinsed with 1% FBS Media and replaced with 87.5 μL media prior to dosing. • DMSO compound dilution series was diluted in 1% FBS media—2 μL compound in 123 μL media to give a 16× final concentration. Dosing across the plate columns 1-12 (compound I-11 0-400 μM), 6.25 μL 16× in media/well. Dosing down plate rows (columns 1-6 dexamethasone 0-400 μM), 6.25 μL 16× compound in media per well. • Cells were dosed with 12.5 μL for both compounds, with 2 replicates of dosing matrix per 96-well plate. Final volume cells and compound was 100 μL/well. • Media blank 100 μL/well×8 was set up. • All plates were incubated at 37° C.
as §6, §7

[13] = system: MM.1S cells; experiment: 5 day viability assay in MM.1S cells, I-11 and dexamethasone (Example 7); format: cell-based; conditions: Homo sapiens, MM1.S, 120 h; MM.1S cells (steroid sensitive), 5 days, Alamar Blue; read-out: IC50 (μM), Viability Assessment (5 Days) in MM.1S Cells
Procedure: as §13, §4, §14, §6, §7

T1 sequence (P06730 28-217): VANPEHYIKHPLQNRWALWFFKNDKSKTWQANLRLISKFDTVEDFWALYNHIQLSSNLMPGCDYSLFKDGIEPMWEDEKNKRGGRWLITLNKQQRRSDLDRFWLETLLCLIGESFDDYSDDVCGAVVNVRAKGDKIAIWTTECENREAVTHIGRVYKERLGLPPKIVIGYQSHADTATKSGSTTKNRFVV

SMILES: CC(C)Cc1sc(Nc2ncc(-c3cccs3)cc2C(=O)O)nc1C1=CCC(F)(F)CC1 [Compound I-4]
- IC50 [1]: ≤ 1000 nM
- IC50 [2]: ≤ 1000 nM
- IC50 [3]: ≤ 1000 nM
- IC50 [4]: 500 to 1000 nM
- IC50 [5]: 1000 to 8000 nM
- IC50 [6]: ≤ 1000 nM
- IC50 [7]: < 1000 nM
- IC50 [8]: ≤ 1000 nM
- IC50 [9]: ≤ 1000 nM
- IC50 [10]: ≤ 1000 nM

SMILES: C=C(C)c1nc(Nc2ncc(-c3cccs3)cc2C(=O)O)sc1CC(C)C [Compound I-13]
- IC50 [1]: 1000 to 8000 nM
- IC50 [2]: 1000 to 8000 nM
- IC50 [3]: 1000 to 8000 nM
- IC50 [4]: 500 to 1000 nM
- IC50 [5]: 1000 to 8000 nM
- IC50 [6]: 1000 to 8000 nM
- IC50 [7]: 1000 to 8000 nM
- IC50 [8]: 1000 to 8000 nM
- IC50 [9]: 1000 to 8000 nM
- IC50 [10]: 1000 to 8000 nM

SMILES: Cc1ccc(-c2cnc(Nc3nc(C(C)(C)C)c(CC(C)C)s3)c(C(=O)O)c2)s1 [Compound I-24]
- IC50 [1]: 1000 to 8000 nM
- IC50 [2]: 1000 to 8000 nM
- IC50 [3]: 1000 to 8000 nM
- IC50 [4]: ≤ 500 nM
- IC50 [5]: > 8000 nM
- IC50 [6]: 1000 to 8000 nM
- IC50 [8]: 1000 to 8000 nM
- IC50 [9]: > 8000 nM
- IC50 [10]: > 8000 nM

SMILES: CC(C)Cc1sc(Nc2ncc(-c3cccs3)cc2C(=O)O)nc1C1CCC1 [Compound I-28]
- IC50 [1]: ≤ 1000 nM
- IC50 [2]: ≤ 1000 nM
- IC50 [3]: ≤ 1000 nM
- IC50 [4]: 500 to 1000 nM
- IC50 [5]: ≤ 1000 nM
- IC50 [6]: ≤ 1000 nM
- IC50 [8]: ≤ 1000 nM
- IC50 [9]: ≤ 1000 nM
- IC50 [10]: ≤ 1000 nM

SMILES: Cc1ccc(-c2cnc(Nc3nc(C4CCC(F)(F)CC4)c(CC(C)C)s3)c(C(=O)O)c2)s1 [Compound I-30]
- IC50 [1]: 1000 to 8000 nM
- IC50 [2]: 1000 to 8000 nM
- IC50 [3]: 1000 to 8000 nM
- IC50 [4]: 500 to 1000 nM
- IC50 [5]: 1000 to 8000 nM
- IC50 [6]: 1000 to 8000 nM
- IC50 [8]: 1000 to 8000 nM
- IC50 [9]: 1000 to 8000 nM
- IC50 [10]: > 8000 nM

SMILES: CC/C(=C(\c1ccccc1)c1ccc(OCCN(C)C)cc1)c1ccccc1 [Tamoxifen, reference compound]
- tumor size growth [11]: reduced tumor size growth

SMILES: C[C@@H]1C[C@H]2[C@@H]3CCC4=CC(=O)C=C[C@]4(C)[C@@]3(F)[C@@H](O)C[C@]2(C)[C@@]1(O)C(=O)CO [dexamethasone, reference compound]
- IC50 [12]: 30.9 µM
- IC50 [13]: 0.0133 µM
